Values of other authors, collected in patent US8349821B2, “Stanol composition and the use thereof” (Raisio Nutrition Ltd., priority 1996, dated 2013).

Tests used:
male subjects = settings: for Absorption rate, on average: intestinal perfusion technique, ten male subjects
healthy humans = settings: in vivo

SMILES	Absorption rate, on average (male subjects) [%]	Amount that can be absorbed (healthy humans) [%]	Dietary campesterol absorbed (male subjects; in vivo)	Absorbability (in words) (healthy humans)
CC[C@H](/C=C/[C@@H](C)[C@H]1CC[C@H]2[C@@H]3CC=C4C[C@@H](O)CC[C@]4(C)[C@H]3CC[C@]12C)C(C)C [stigmasterol]	4.8			
CC[C@H](CC[C@@H](C)[C@H]1CC[C@H]2[C@@H]3CC=C4C[C@@H](O)CC[C@]4(C)[C@H]3CC[C@]12C)C(C)C [sitosterol]	4.2	< 5		
CC(C)[C@H](C)CC[C@@H](C)[C@H]1CC[C@H]2[C@@H]3CC=C4C[C@@H](O)CC[C@]4(C)[C@H]3CC[C@]12C [campesterol]	9.6		up to 10%	
CC[C@H](CC[C@@H](C)[C@H]1CC[C@H]2[C@@H]3CC[C@H]4C[C@@H](O)CC[C@]4(C)[C@H]3CC[C@]12C)C(C)C [sitostanol]				practically unabsorbable
